In patent US6803378B2, “HIV integrase inhibitors” (Bristol-Myers Squibb Company, priority 2000, dated 2004):

Biological target: T1, HIV-1 integrase (Human immunodeficiency virus type 1 group M subtype B, UniProt P04585)
T1 construct: Purified recombinant HIV-1 integrase was incubated with immobilized precleaved substrate DNA
Assay: In vitro activity against integrase, Method A (immobilized precleaved substrate DNA, biotinylated target DNA, 96 well plate)
Type: biochemical
Settings: Assay Method A, read-out: Percent inhibition of HIV Integrase at 70 uM
Method: The in vitro activities, against integrase, of compounds of the present invention were measured by one of the following three methods.
In Method A, the in vitro activity against integrase was measured in a manner which was similar to previously disclosed methods (cf. Hazuda, D. J.; Felock, P.; Witmer, M.; Wolfe, A.; Stillmock, K.; Grobler, J. A.; Espeseth, A.; Gabryelski, L.; Schleif, W.; Blau, C.; Miller, M. D. Science, 2000, 287, 646) Purified recombinant HIV-1 integrase was incubated with immobilized precleaved substrate DNA in a 96 well plate for 20 min at 37° C. After the integration complex was formed, compounds at desired concentrations were added to the wells followed by a 10 min incubation at 37° C. Biotinyted Target DNA was then added and the reaction was carried out for an additional 1 hour at 37° C. Wells were then washed thoroughly to remove any free DNA and integration activity was measured by using a commercial kit to quantitate the amount of biotinyted target DNA integrated into the substrate.

Compound	inhibition at 70 µM [%]
CN(Cc1cccc(OCc2ccc(F)cc2)c1)C(=O)/C=C(\O)C(=O)O [Compound 3, 3-{[3-(4-Fluoro-benzyloxy)-benzyl]-methyl-carbamoyl}-2-hydroxy-acrylic acid]	99
CN(Cc1ccccc1-c1ccccc1)C(=O)/C=C(\O)C(=O)O [Compound 39, 3-(Biphenyl-2-ylmethyl-methyl-carbamoyl)-2-hydroxy-acrylic acid]	85
O=C(O)/C(O)=C/C(=O)N(CCc1ccc(F)cc1)Cc1csc2ccc(Cl)cc12 [Compound 20, 3-{(5-Chloro-benzo[b]thiophen-3-ylmethyl)-[2-(4-fluoro-phenyl)-ethyl]-carbamoyl}-2-hydroxy-acrylic acid]	97.5
CN(Cc1cccc(C(F)(F)F)c1)C(=O)/C=C(\O)C(=O)O [Compound 37, 2-Hydroxy-3-[methyl-(3-trifluoromethyl-benzyl)-carbamoyl]-acrylic acid]	82.5
O=C(O)CNC(=O)/C(O)=C/C(=O)N(Cc1ccc(F)cc1)Cc1ccc(F)cc1 [Compound 145, {3-[Bis-(4-fluoro-benzyl)-carbamoyl]-2-hydroxy-acryloylamino}-acetic acid]	95
O=C(O)/C(O)=C/C(=O)N(Cc1ccc(F)cc1)Cc1ccc(Cl)cc1 [Compound 24, 3-[(4-Chloro-benzyl)-(4-fluoro-benzyl)-carbamoyl]-2-hydroxy-acrylic acid]	90
CN(Cc1ccc(OCc2ccccc2)cc1)C(=O)/C=C(\O)C(=O)O [Compound 36, 3-[(4-Benzyloxy-benzyl)-methyl-carbamoyl]-2-hydroxy-acrylic acid]	30
O=C(O)/C(O)=C/C(=O)N(Cc1ccc(F)cc1)Cc1ccc(F)cc1F [Compound 25, 3-[(2,4-Difluoro-benzyl)-(4-fluoro-benzyl)-carbamoyl]-2-hydroxy-acrylic acid]	96.5
CN(C(=O)/C=C(\O)C(=O)O)C(c1ccc(F)cc1)c1cccnc1 (centres unmarked) [Compound 77, 3-{[(4-Fluoro-phenyl)-pyridin-3-yl-methyl]-methyl-carbamoyl}-2-hydroxy-acrylic acid]	60
O=C(O)/C(O)=C/C(=O)N(Cc1ccc(F)cc1)Cc1ccccc1Cl [Compound 19, 3-[(2-Chloro-benzyl)-(4-fluoro-benzyl)-carbamoyl]-2-hydroxy-acrylic acid]	96.5
O=C(O)/C(O)=C/C(=O)N(CCc1ccc(F)cc1)Cc1ccccc1Cl [Compound 18, 3-{(2-Chloro-benzyl)-[2-(4-fluoro-phenyl)-ethyl]-carbamoyl}-2-hydroxy-acrylic acid]	89.5
O=C(O)/C(O)=C/C(=O)N(Cc1ccc(F)cc1)Cc1csc2ccc(Cl)cc12 [Compound 21, 3-[(5-Chloro-benzo[b]thiophen-3-ylmethyl)7(4-fluoro-benzyl)-carbamoyl]-2-hydroxy-acrylic acid]	98
CN(Cc1cccc(-c2ccccc2)c1)C(=O)/C=C(\O)C(=O)O [Compound 34, 3-(Biphenyl-3-ylmethyl-methyl-carbamoyl)-2-hydroxy-acrylic acid]	85
Cc1ccc(CN(C)C(=O)/C=C(\O)C(=O)O)cc1 [Compound 30, 2-Hydroxy-3-[methyl-(4-methyl-benzyl)-carbamoyl]-acrylic acid]	84
O=C(O)/C(O)=C/C(=O)N(Cc1ccc(F)cc1)Cc1cccc(Cl)c1 [Compound 28, 3-[(3-Chloro-benzyl)-(4-fluoro-benzyl)-carbamoyl]-2-hydroxy-acrylic acid]	96.5
CN(Cc1ccc(F)c2ccccc12)C(=O)/C=C(\O)C(=O)O [Compound 41, 3-[(4-Fluoro-naphthalen-1-ylmethyl)-methyl-carbamoyl]-2-hydroxy-acrylic acid]	95
COc1ccc(C(c2ccc(OC)cc2)N(C)C(=O)/C=C(\O)C(=O)O)cc1 [Compound 6, 3-{[Bis-(4-methoxy-phenyl)-methyl]-methyl-carbamoyl}-2-hydroxy-acrylic acid]	75
CN(CCc1ccc(F)cc1)C(=O)/C=C(\O)C(=O)O [Compound 22, 3-{[2-(4-Fluoro-phenyl)-ethyl]-methyl-carbamoyl}-2-hydroxy-acrylic acid]	75
CN(Cc1ccccc1F)C(=O)/C=C(\O)C(=O)O [Compound 38, 3-[(2-Fluoro-benzyl)-methyl-carbamoyl]-2-hydroxy-acrylic acid]	70
O=C(O)/C(O)=C/C(=O)N(Cc1ccc(F)cc1)Cc1ccc(F)c(F)c1 [Compound 26, 3-[(3,4-Difluoro-benzyl)-(4-fluoro-benzyl)-carbamoyl]-2-hydroxy-acrylic acid]	97
COc1ccc(CN(Cc2ccc(F)cc2)C(=O)/C=C(\O)C(=O)O)c(OC)c1 [Compound 35, 3-[(2,4-Dimethoxy-benzyl)-(4-fluoro-benzyl)-carbamoyl]-2-hydroxy-acrylic acid]	95.5

Compound	inhibition at 70 µM [%]
CN(Cc1cccc(Cc2ccc(F)cc2)c1)C(=O)/C=C(\O)C(=O)O [Compound 2, 3-{[3-(4-Fluoro-benzyl)-benzyl]-methyl-carbamoyl}-2-hydroxy-acrylic acid]	88
CN(C(=O)/C=C(\O)C(=O)O)C(c1ccc(Cl)cc1)c1ccc(Cl)cc1 [Compound 4, 3-{[Bis-(4-chloro-phenyl)-methyl]-methyl-carbamoyl}-2-hydroxy-acrylic acid]	90
CN(Cc1cccc(F)c1)C(=O)/C=C(\O)C(=O)O [Compound 40, 3-[(3-Fluoro-benzyl)-methyl-carbamoyl]-2-hydroxy-acrylic acid]	90
CC(C)N(Cc1ccc(F)cc1)C(=O)/C=C(\O)C(=O)O [Compound 29, 3-[(4-Fluoro-benzyl)-isopropyl-carbamoyl]-2-hydroxy-acrylic acid]	38
COCCN(Cc1ccc(F)cc1)C(=O)/C=C(\O)C(=O)O [Compound 42, 3-[(4-Fluoro-benzyl)-(2-methoxy-ethyl)-carbamoyl]-2-hydroxy-acrylic acid]	91
COc1ccc(CN(C)C(=O)/C=C(\O)C(=O)O)cc1 [Compound 31, 2-Hydroxy-3-[(4-methoxy-benzyl)-methyl-carbamoyl]-acrylic acid]	82
COc1cccc(CN(C)C(=O)/C=C(\O)C(=O)O)c1 [Compound 33, 2-Hydroxy-3-[(3-methoxy-benzyl)-methyl-carbamoyl]-acrylic acid]	90
O=C(O)/C(O)=C/C(=O)N(CCCc1ccccc1)Cc1ccc(F)cc1 [Compound 43, 3-[(4-Fluoro-benzyl)-(3-phenyl-propyl)-carbamoyl]-2-hydroxy-acrylic acid]	93.5
CN(Cc1ccc(OCc2ccc(F)cc2)cc1)C(=O)/C=C(\O)C(=O)O [Compound 1, 3-{[4-(4-Fluoro-benzyloxy)-benzyl]-methyl-carbamoyl}-2-hydroxy-acrylic acid]	40
CN(Cc1ccccc1)C(=O)/C=C(\O)C(=O)O [Compound 17, 3-(Benzyl-methyl-carbamoyl)-2-hydroxy-acrylic acid]	89.5
CCN(Cc1ccc(F)cc1)C(=O)/C=C(\O)C(=O)O [Compound 32, 3-[Ethyl-(4-fluoro-benzyl)-carbamoyl]-2-hydroxy-acrylic acid]	93
O=C(O)/C(O)=C/C(=O)N(Cc1ccc(F)cc1)c1ccc(F)cc1OCc1ccc(F)cc1 [Compound 88, 3-{(4-Fluoro-benzyl)-[4-fluoro-2-(4-fluoro-benzyloxy)-phenyl]-carbamoyl}-2-hydroxy-acrylic acid]	90
O=C(O)/C(O)=C/C(=O)N(CCc1ccccc1)Cc1ccccc1 [Compound 13, 3-(Benzyl-phenethyl-carbamoyl)-2-hydroxy-acrylic acid]	94
CC(c1ccccc1)N(Cc1ccc(F)cc1)C(=O)/C=C(\O)C(=O)O (centres unmarked) [Compound 23, 3-[(4-Fluoro-benzyl)-(1-phenyl-ethyl)-carbamoyl]-2-hydroxy-acrylic acid]	55
CN(Cc1ccccc1Br)C(=O)/C=C(\O)C(=O)O [Compound 12, 3-[(2-Bromo-benzyl)-methyl-carbamoyl]-2-hydroxy-acrylic acid]	85
CC(C)(C)N(Cc1ccc(F)cc1)C(=O)/C=C(\O)C(=O)O [Compound 27, 3-[tert-Butyl-(4-fluoro-benzyl)-carbamoyl]-2-hydroxy-acrylic acid]	33.5
CN(Cc1ccccc1OCc1ccc(F)cc1)C(=O)/C=C(\O)C(=O)O [Compound 82, 3-{[2-(4-Fluoro-benzyloxy)-benzyl]-methyl-carbamoyl}-2-hydroxy-acrylic acid]	80
CN(Cc1csc2ccc(Cl)cc12)C(=O)/C=C(\O)C(=O)O [Compound 15, 3-[(5-Chloro-benzo[b]thiophen-3-ylmethyl)-methyl-carbamoyl]-2-hydroxy-acrylic acid]	97
CN(C(=O)/C=C(\O)C(=O)O)C(c1ccc(F)cc1)c1ccc(F)cc1 [Compound 5, 3-{[Bis-(4-fluoro-phenyl)-methyl]-methyl-carbamoyl}-2-hydroxy-acrylic acid]	65
CN(C(=O)/C=C(\O)C(=O)O)C(c1ccccc1)c1ccccc1 [Compound 7, 3-(Benzhydryl-methyl-carbamoyl)-2-hydroxy-acrylic acid]	32
